The text below walks through data of patent publication US20180311161A1, “AMPHIPHILIC POLYMERS ENCAPSULATING THERAPEUTICALLY ACTIVE AGENTS” (TECHNION RESEARCH & DEVELOPMENT FOUNDATION LIMITED, priority 2015, published 2018).

Molecules are shown by their SMILES.

The nature of series [1]: Encapsulation of efavirenz in polymeric micelles (apparent solubility, solubility factor). In kind it is physicochemical. The following applies: 37° C. On the procedure: The encapsulation capacity of the micelles was studied with the antiretroviral efavirenz. For this, 1%, 3%, 5% and 10% w/v CS-N52 and 1% CS-N74 polymeric micelles were prepared and 2-10 mg of drug per mL of micellar suspension added. The suspension was magnetically stirred at 37° C. (48 h), filtered (1.2 μm, Minisart® NML cellulose acetate, Sartorius AG, Goettingen, Germany) to remove insoluble drug, the filtrate diluted (1/10) in distilled water and 10 mL extracted with dichloromethane (3×20 mL). The organic solution was evaporated under vacuum, re-dissolved in methanol and the absorbance measured in microplate spectrophotometer (λ=248 nm). Then, the EFV concentration was calculated by interpolation in a calibration curve in the range of 0.02-80 μg/mL (R^2>0.9999). Finally, the solubility factor (fs) was determined according to
where Sa is the apparent solubility of active agent (herein: efavirenz) in the polymeric micelles and Si is the intrinsic solubility of the active agent (efavirenz) in a polymer-free medium (7 μg/mL), at 37° C. Measurements were performed in triplicate and the results are expressed as the mean±S.D. Efavirenz-loaded micelles before and after ionotropic crosslinking were characterized for Dh, PDI and Z-potential by DLS (see above).

Series [2] deals with Caco2 cell line. Put plainly: In vitro cell compatibility, MTT method. In kind it is cell-based. As to conditions: crosslinker, versus only-medium control (100% viability). Here is the method:
Since these polymeric micelles are envisioned for the administration by mucosal routes, including the oral one, their cell compatibility before and after corona-crosslinking was evaluated in a Caco2 cell line (ATCC® HTB-37™) obtained from American Type Culture Collection (ATCC®, Manassas, Va., USA).
In exemplary embodiments, cells were cultured in Eagle's Minimum Essential Medium (EMEM, Life Technologies Corp., Carlsbad, Calif., USA) supplemented with L-glutamine, 10% heat-inactivated fetal bovine serum (FBS, Sigma-Aldrich) and penicillin/streptomycin (5 mL of a commercial mixture of 100 U/mL of penicillin+100 μg/mL streptomycin per 500 mL medium, Sigma-Aldrich) and maintained at 37° C. in a humidified 5% CO2 atmosphere and split 1:10 into fresh media every three-four days. Cells were harvested by trypsinization (trypsin-EDTA 0.25%, Sigma-Aldrich) and the number of live cells was quantified the trypan blue (1%, Sigma-Aldrich) exclusion assay and a Neubauer chamber. To determine the compatibility of the polymeric micelles (expressed as percentage with respect to a blank incubated with culture medium), cells were cultured in 96-well plates (5×10^3 cells/well) and allowed to attach over 72 h. The medium in each well was replaced by different samples (concentration between 0.1%, 0.3% and 0.5% in PBS+medium) and cells incubated over 4 and 24 h. […]
For orientation: Tetrazolium dyes change colour on reduction, which living cells bring about.

With `O=C1Nc2ccc(Cl)cc2[C@@](C#CC2CC2)(C(F)(F)F)O1` [efavirenz], in series [1], the “Si (intrinsic solubility in a polymer-free medium)” value was 7 µg/mL.

Regarding `O=P(O)(O)OP(=O)(O)OP(=O)(O)O` [TPP, sodium tripolyphosphate], in series [2], the “viability of Caco2 cells (MTT)” value is “did not affect the viability of the cells”.
